BigSolDB 2.1

Cc1cnc(NC(=O)C2=C(O)c3ccccc3S(=O)(=O)N2C)s1
solubility (mole fraction)
Details	293.15 K	298.15 K	303.15 K	308.15 K	313.15 K
in ethanol	4.47e-05	5.67e-05	7.52e-05	9.37e-05	0.000123
in ethyl acetate	0.000389	0.000453	0.00053	0.000607	0.000707
